Results taken from article PMC10824489 (Journal of medicinal chemistry, 2023).
Entries after “also recorded” stand apart in the source; their conditions may differ.

Key:
[1] = target: T1, RPE65 (Mus musculus, UniProt Q91ZQ5); settings: 10 mg/kg IP; for RPE65 inhibition in vivo (in words): BALB/cJ mice; for 11cRAL level in eye / RE level in eye: four hours of dark adaptation after light exposure, mean ± SD, n=3
T1 sequence (Q91ZQ5 1-533): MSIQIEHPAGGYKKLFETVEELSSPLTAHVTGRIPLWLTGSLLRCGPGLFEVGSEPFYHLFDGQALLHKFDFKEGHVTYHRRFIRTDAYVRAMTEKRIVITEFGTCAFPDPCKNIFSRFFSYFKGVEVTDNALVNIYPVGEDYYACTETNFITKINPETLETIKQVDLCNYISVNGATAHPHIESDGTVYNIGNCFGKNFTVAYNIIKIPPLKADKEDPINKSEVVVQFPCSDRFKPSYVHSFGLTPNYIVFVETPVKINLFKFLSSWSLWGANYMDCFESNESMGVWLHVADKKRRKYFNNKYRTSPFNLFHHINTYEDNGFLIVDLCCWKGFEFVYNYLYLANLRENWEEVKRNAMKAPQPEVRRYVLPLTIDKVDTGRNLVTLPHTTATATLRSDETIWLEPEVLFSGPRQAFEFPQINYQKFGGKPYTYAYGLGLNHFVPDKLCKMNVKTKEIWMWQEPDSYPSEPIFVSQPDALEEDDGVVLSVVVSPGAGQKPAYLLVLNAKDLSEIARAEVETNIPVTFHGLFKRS

[2] = target: RPE65 (Bos taurus, UniProt Q28175); experiment: RPE65 activity assay in vitro; assay type: biochemical, bovine; settings: for inhibition of RPE65 in vitro: concentration range 0.1-50 μM
[3] = target: T2, VAP-1 (Mus musculus, UniProt O70423); experiment: VAP-1 oxidation assay in mouse aorta homogenates; settings: for Concentration of 16e in mouse aorta homogenates: substrate 16e 100 μM
T2 sequence (O70423 1-765): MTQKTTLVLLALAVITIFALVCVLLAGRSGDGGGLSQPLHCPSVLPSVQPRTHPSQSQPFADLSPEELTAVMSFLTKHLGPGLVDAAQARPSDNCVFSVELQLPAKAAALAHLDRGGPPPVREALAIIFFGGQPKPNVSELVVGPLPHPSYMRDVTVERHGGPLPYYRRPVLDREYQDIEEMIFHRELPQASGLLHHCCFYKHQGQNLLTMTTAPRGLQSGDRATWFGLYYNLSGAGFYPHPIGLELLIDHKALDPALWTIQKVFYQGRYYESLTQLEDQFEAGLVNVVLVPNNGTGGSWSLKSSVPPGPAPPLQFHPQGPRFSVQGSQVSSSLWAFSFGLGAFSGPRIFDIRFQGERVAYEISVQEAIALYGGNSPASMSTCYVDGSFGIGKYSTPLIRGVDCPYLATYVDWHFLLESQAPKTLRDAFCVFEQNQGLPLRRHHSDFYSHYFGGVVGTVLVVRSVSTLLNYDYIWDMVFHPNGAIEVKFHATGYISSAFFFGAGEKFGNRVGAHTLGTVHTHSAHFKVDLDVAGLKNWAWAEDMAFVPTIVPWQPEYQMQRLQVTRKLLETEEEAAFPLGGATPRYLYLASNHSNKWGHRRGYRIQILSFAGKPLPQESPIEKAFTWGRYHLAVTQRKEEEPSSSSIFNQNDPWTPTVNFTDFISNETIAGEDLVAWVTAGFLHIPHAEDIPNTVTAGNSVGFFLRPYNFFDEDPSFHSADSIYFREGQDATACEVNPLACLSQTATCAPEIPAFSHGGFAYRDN

[4] = tested on: CYP-450 enzymes; experiment: Liver microsomes assay
[5] = in vivo; settings: C57BL/6J, mouse, serum, intraperitoneal, 10 mg/kg

RPE65 (Bos taurus, UniProt Q28175), sequence (Q28175 whole entry): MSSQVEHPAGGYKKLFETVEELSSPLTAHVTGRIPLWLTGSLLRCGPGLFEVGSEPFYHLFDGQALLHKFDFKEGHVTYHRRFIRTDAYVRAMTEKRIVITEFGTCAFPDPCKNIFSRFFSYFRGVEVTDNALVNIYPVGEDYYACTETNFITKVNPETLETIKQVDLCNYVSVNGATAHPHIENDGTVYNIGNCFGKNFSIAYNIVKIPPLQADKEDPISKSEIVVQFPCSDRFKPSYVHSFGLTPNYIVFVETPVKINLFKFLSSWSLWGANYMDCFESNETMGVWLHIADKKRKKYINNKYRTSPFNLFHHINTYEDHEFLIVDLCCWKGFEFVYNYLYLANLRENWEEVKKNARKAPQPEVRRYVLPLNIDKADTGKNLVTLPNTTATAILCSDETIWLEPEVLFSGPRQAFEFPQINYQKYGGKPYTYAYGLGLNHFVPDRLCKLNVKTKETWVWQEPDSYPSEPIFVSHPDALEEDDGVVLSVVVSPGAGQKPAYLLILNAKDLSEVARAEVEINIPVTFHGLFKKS

SMILES: CC(CCN)c1cccc(OCC2CCCCC2)c1 (stereo not shown) [16b, 3-(3-(Cyclohexylmethoxy)phenyl)butan-1-amine]
- RPE65 inhibition in vivo (in words) [1]: minor RPE65 inhibition
- non-specific toxicity observation ([1]; all animals, even 24 hours after treatment): impaired body movement
- 11cRAL level in eye [1]: 253.5 ± 9.0 pmol/eye
- RE level in eye [1]: 85.6 ± 12.7 pmol/eye

SMILES: NC(CO)Cc1cccc(OCC2CCCCC2)c1 (stereo not shown) [6b, 2-Amino-3-(3-(cyclohexylmethoxy)phenyl)propan-1-ol]
- inhibition of RPE65 in vitro [2]: no inhibition

SMILES: CNCCC(O)c1cccc(OCC2CCCCC2)c1 (stereo not shown) [16e, 1-(3-(Cyclohexylmethoxy)phenyl)-3-(methylamino)propan-1-ol]
- Concentration of 16e in mouse aorta homogenates ([3]; time 0): 100.32 ± 0.95 µM
- Concentration of 16e in mouse aorta homogenates ([3]; time 1): 101.20 ± 0.89 µM
- hepatic clearance relative to 3a ([4]; Cint ratio): 5.5 times
- rate of liver metabolism relative to 3a ([4]; Vmax ratio): 1.7 times
- demethylation to 3a in liver microsomes ([4]; one-hour exposure, 200 μM): minor amount of demethylation
- concentration at 24 h [5]: 0 nM
- 11cRAL per eye as % of the dark adapted (DA) level ([1]; 24 hours post treatment): 53%
- RPE65 inhibition in vivo (in words) [1]: potent RPE65 inhibition

SMILES: CC(CN)Cc1cccc(OCC2CCCCC2)c1 (stereo not shown) [16c, (3-(Cyclohexylmethoxy)phenyl)-2-methylpropan-1-amine]
- RPE65 inhibition in vivo (in words) [1]: minor RPE65 inhibition
- 11cRAL level in eye [1]: 370.5 ± 9.1 pmol/eye
- RE level in eye [1]: 123.9 ± 36.4 pmol/eye

SMILES: NC(CO)Cc1ccc(OCC2CCCCC2)cc1 (stereo not shown) [6c, 2-Amino-3-(4-(cyclohexylmethoxy)phenyl)propan-1-ol]
- inhibition of RPE65 in vitro [2]: lack of dose-response relationship

SMILES: O=CC=Cc1cccc(OCC2CCCCC2)c1 [ACU-5201]
- Concentration of deaminated product ACU-5201 in mouse aorta homogenates ([3]; formed from substrate 3a, time 0): 0.00 ± 0.00 µM
- Concentration of deaminated product ACU-5201 in mouse aorta homogenates ([3]; formed from substrate 3a, time 1): 19.71 ± 0.29 µM
- Concentration of deaminated product ACU-5201 in mouse aorta homogenates ([3]; formed from substrate 3a, time 4): 54.81 ± 6.38 µM
- Concentration of deaminated product ACU-5201 in mouse aorta homogenates ([3]; formed from substrate 16e, time 1): 0.48 ± 0.68 µM
- Concentration of deaminated product ACU-5201 in mouse aorta homogenates ([3]; formed from substrate 16e, time 4): 3.76 ± 0.29 µM

SMILES: NCCc1cccc(OCC2CCCCC2)c1 [11b, 2-(3-(Cyclohexylmethoxy)phenyl)ethan-1-amine]
- RPE65 inhibition in vivo (in words) [1]: did not display hallmarks of inhibited RPE65 activity
- potency towards RPE65 relative to amine 11a ([2]; ratio of IC50 values): 7.6 times

SMILES: NC(CCO)c1cccc(OCC2CCCCC2)c1 (stereo not shown) [6a, 3-Amino-3-(3-(cyclohexylmethoxy)phenyl)propan-1-ol]
- inhibition of RPE65 in vitro [2]: lack of inhibitory activity; also recorded: no inhibition
